This assay concerns the target c-SRC (h) (Homo sapiens, UniProt P12931). Briefly: Src Kinase Assay (33P-ATP filter-binding, Cdc2 peptide substrate). The note with it: compound at 10 μM; c-SRC (h) 5-10 mU, 40 minutes at room temperature. It is filed as biochemical. Here is the method:
This example illustrated Src Kinase Assays. Briefly, in a final reaction volume of 25 μL, c-SRC (h) (5-10 mU) is incubated with 8 mM MOPS pH 7.0, 0.2 mM EDTA, 250 μM KVEKIGEGTYGVVYK (Cdc2 peptide), 10 mM MgAcetate and [g-33P-ATP] (specific activity approx. 500 cpm/pmol, concentration as required). The reaction is initiated by the addition of the MgATP mix. After incubation for 40 minutes at room temperature, the reaction is stopped by the addition of 5 μL of a 3% phosphoric acid solution. 10 μL of the reaction is then spotted onto a P30 filtermat and washed three times for 5 minutes in 75 mM phosphoric acid and once in methanol prior to drying and scintillation counting.
c-SRC (h), sequence (P12931 whole entry): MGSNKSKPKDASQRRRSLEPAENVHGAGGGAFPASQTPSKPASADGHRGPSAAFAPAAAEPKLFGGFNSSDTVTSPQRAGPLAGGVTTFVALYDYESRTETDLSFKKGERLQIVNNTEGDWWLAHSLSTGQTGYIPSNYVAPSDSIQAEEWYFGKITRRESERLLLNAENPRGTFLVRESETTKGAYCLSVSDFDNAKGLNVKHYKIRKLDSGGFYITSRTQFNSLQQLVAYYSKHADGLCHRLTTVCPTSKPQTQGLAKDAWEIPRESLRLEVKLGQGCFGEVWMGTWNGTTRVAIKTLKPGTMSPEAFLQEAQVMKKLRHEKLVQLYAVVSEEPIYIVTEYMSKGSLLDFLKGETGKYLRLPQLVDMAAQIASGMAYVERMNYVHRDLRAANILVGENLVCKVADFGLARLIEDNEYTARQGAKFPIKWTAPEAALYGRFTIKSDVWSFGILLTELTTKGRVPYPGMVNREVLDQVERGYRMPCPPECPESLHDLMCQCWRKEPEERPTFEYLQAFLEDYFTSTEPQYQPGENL
`Cc1cccc(Cl)c1NC(=O)c1cnc(Nc2nc(-c3ccccc3)nc(N3CCN(CCO)CC3)n2)s1` [Example 31] yielded an inhibition at 10 µM of over 90%.

Regarding `Cc1nc(Nc2ncc(C(=O)Nc3c(C)cccc3Cl)s2)nc(N2CCC(CO)CC2)n1` [Example 11], the inhibition at 10 µM was over 90%.

The compound `Cc1nc(Nc2ncc(C(=O)Nc3c(C)cccc3Cl)s2)nc(N2CCNCC2)n1` [Example 13] came in with an inhibition at 10 µM of over 90%. The value for `Cc1nc(NCCCn2ccnc2)nc(Nc2ncc(C(=O)Nc3c(C)cccc3Cl)s2)n1` [Example 20] was over 90%. Regarding `COCC(C)Nc1ncnc(Nc2cc(CC(=O)Nc3cccc(F)c3)[nH]n2)n1` (centres unmarked) [Example 111], the inhibition at 10 µM is under 50%. The figure for `Cc1nc(Nc2ncc(C(=O)Nc3c(C)cccc3Cl)s2)nc(N2CCN(c3cccc(C(F)(F)F)c3)CC2)n1` [Example 18] is over 90%; for `CCc1nc(Nc2ncc(C(=O)Nc3c(C)cccc3Cl)n2C)nc(N2CCN(C)CC2)n1` [Example 59] it is over 90%. The figure for `CCc1nc(NCCCN2CCOCC2)nc(Nc2ncc(C(=O)Nc3c(C)cccc3Cl)s2)n1` [Example 28] is over 90%; for `Cc1cccc(Cl)c1NC(=O)Cc1cc(Nc2ncnc(OCCCN(C)C)n2)n[nH]1` [Example 107] it is under 50%; for `CCc1nc(Nc2nnc(C(=O)Nc3c(C)cccc3Cl)o2)nc(N2CCN(CCO)CC2)n1` [Example 52] it is under 50%.

The compound `CCc1nc(NCCN(C)C)nc(Nc2ncc(C(=O)Nc3c(C)cccc3Cl)s2)n1` [Example 26] gave an inhibition at 10 µM of over 90%. The figure for `CCc1nc(NCCN(C)C)nc(Nc2ncc(C(=O)NC(C)C)s2)n1` [Example 67] is under 50%; for `Cc1nc(Nc2ncc(C(=O)Nc3c(C)cccc3Cl)s2)nc(N2CCNC(=O)C2)n1` [Example 19] it is over 90%. In the case of `Cc1cccc(Cl)c1NC(=O)Cc1cc(Nc2ncnc(N3CCN(C)CC3)n2)n[nH]1` [Example 106], the inhibition at 10 µM was under 50%. `Cc1cccc(Cl)c1NC(=O)Cc1cnc(Nc2ncnc(N3CCN(C)CC3)n2)s1` [Example 92] gave an inhibition at 10 µM of under 50%.

In the case of `CCc1nc(Nc2ncc(C(=O)Nc3c(C)cccc3Cl)s2)nc(N2CCN(c3ccncc3)CC2)n1` [Example 24], the inhibition at 10 µM was over 90%. The figure for `O=C(Cc1cc(Nc2ncnc(Nc3ccccc3)n2)n[nH]1)Nc1cccc(F)c1` [Example 113] is under 50%; for `Cc1nc(Nc2ncc(C(=O)Nc3c(C)cccc3Cl)s2)nc(N2CCN(Cc3ccncc3)CC2)n1` [Example 10] it is over 90%. The figure for `CN(C)CCCOc1ncnc(Nc2cc(CC(=O)NCc3ccc(F)cc3)[nH]n2)n1` [Example 109] is under 50%. The value for `Cc1nc(Nc2ncc(C(=O)Nc3c(C)cccc3Cl)s2)nc(N2CCN(CCO)CC2)n1` [Example 5] was over 90%; that for `CCc1nc(Nc2ncc(CC(=O)Nc3c(C)cccc3Cl)s2)nc(N2CCN(CCO)CC2)n1` [Example 93] was under 50%; that for `Cc1nc(Nc2ncc(C(=O)Nc3c(C)cccc3Cl)s2)nc(N2CCN(c3ccccc3)CC2)n1` [Example 17] was over 90%. Turning to `CCc1nc(Nc2ncc(C(=O)Nc3c(C)cccc3Cl)o2)nc(N2CCN(CCO)CC2)n1` [Example 40], the inhibition at 10 µM was over 90%.

The compound `CN1CCN(c2ncnc(Nc3ncc(CC(=O)Nc4cccc(F)c4)s3)n2)CC1` [Example 88] displayed an inhibition at 10 µM of under 50%. The value for `CN(C)CCCOc1ncnc(Nc2cc(CC(=O)Nc3cccc(F)c3)[nH]n2)n1` [Example 105] was under 50%; that for `CCc1nc(NCCN(C)C)nc(Nc2ncc(C(=O)Nc3ccccc3)s2)n1` [Example 79] was 50 to 90%. `O=C(Cc1cnc(Nc2ncnc(N3CCCCC3)n2)s1)Nc1cccc(F)c1` [Example 89]: the inhibition at 10 µM is under 50%. In the case of `CCc1nc(NCCO)nc(Nc2ncc(C(=O)Nc3c(C)cccc3Cl)s2)n1` [Example 27], the inhibition at 10 µM was over 90%.

Regarding `CN(C)CCN(C)c1ncnc(Nc2cc(CC(=O)Nc3cccc(F)c3)[nH]n2)n1` [Example 110], the inhibition at 10 µM is under 50%.

Compound `CN1CCN(c2ncnc(Nc3cc(CC(=O)Nc4cccc(F)c4)[nH]n3)n2)CC1` [Example 104] yielded an inhibition at 10 µM of under 50%.

On to `CCc1nc(NCCN(C)C)nc(Nc2ncc(C(=O)Nc3c(C)cccc3C)s2)n1` [Example 71], for which the inhibition at 10 µM is over 90%. The figure for `Cc1nc(Nc2ncc(C(=O)Nc3c(C)cccc3Cl)o2)nc(N2CCNCC2)n1` [Example 38] is over 90%; for `CN1CCN(c2ncnc(Nc3cc(CC(=O)NCc4ccc(F)cc4)[nH]n3)n2)CC1` [Example 108] it is under 50%; for `Cc1nc(Nc2ncc(C(=O)Nc3c(C)cccc3Cl)s2)nc(N2CCN(CCC#N)CC2)n1` [Example 14] it is over 90%. The value for `CCc1nc(NCCN(CC)CC)nc(Nc2ncc(C(=O)Nc3c(C)cccc3Cl)s2)n1` [Example 94] was over 90%; that for `CCc1nc(NCCN(C)C)nc(Nc2ncc(C(=O)Nc3c(C)cc(C)cc3C)s2)n1` [Example 75] was over 90%; that for `Cc1cccc(Cl)c1NC(=O)c1cnc(Nc2nc(CC(C)C)nc(N3CCN(CCO)CC3)n2)s1` [Example 34] was over 90%. The compound `Cc1nc(Nc2ncc(C(=O)Nc3c(C)cccc3Cl)s2)nc(N2CCN(C)CC2)n1` [Example 7] registered an inhibition at 10 µM of over 90%. The value for `CCc1nc(NCCN(C)C)nc(Nc2ncc(C(=O)NC3CC3)s2)n1` [Example 63] was under 50%. The value for `CCc1nc(Nc2ncc(C(=O)Nc3c(C)cccc3Cl)s2)nc(N2CCN(CCO)CC2)n1` [Example 23] was over 90%; that for `CCc1nc(Nc2ncc(C(=O)Nc3c(C)cccc3Cl)s2)nc(N2CCOCC2)n1` [Example 25] was over 90%.

These data come from patent US20120238576A1, “Triazine Derivatives and their Therapeutical Applications” (CALIFORNIA CAPITAL EQUITY, LLC, priority 2009, published 2012).
